From PMC3382599, “The Anti-Tumor Effect of A3 Adenosine Receptors Is Potentiated by Pulsed Electromagnetic Fields in Cultured Neural Cancer Cells” (PLoS ONE, 2012)

Molecular target: T1, A2BARs (rat cortical neurons) (Rattus norvegicus, UniProt P29276)
T1 construct: gene Adora2b; native receptor in membranes of primary cortical neurons from day-18 rat embryos
T1 sequence (P29276 1-332): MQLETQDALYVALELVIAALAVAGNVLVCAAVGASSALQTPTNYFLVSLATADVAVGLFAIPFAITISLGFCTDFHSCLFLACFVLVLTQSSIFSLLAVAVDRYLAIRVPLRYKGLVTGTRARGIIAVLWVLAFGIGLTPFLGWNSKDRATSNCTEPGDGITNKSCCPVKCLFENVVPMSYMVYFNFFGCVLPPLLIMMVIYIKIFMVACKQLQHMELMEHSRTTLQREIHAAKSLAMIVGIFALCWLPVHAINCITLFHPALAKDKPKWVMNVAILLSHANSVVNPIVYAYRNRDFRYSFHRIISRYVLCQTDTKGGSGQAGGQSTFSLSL
Assay: radioligand saturation binding, membranes
Settings: rat cortical neuron membranes, no PEMF; labelled compound
From the text: radioligand saturation binding, membranes on A2BARs (rat cortical neurons)

Q: Which Kd does the source give for `CCCn1c(=O)c2[nH]c(-c3cc(OCC(=O)Nc4ccc5c(c4)OCO5)nn3C)nc2n(CCC)c1=O` [[3H]-MRE 2029F20, [^3H]-N-benzo [1], [3]dioxol-5-yl-2-[5-(2,6-dioxo-1,3-dipropyl-2,3,6,7-tetrahydro-1H-purin-8-yl)-1-methy-1H-pyrazol-3-yl-oxy]-acetamide] here?
A: 1.52 ± 0.11 nM
